# Assay results taken from PMC9501280, “Anti-Inflammatory Activity of Soluble Epoxide Hydrolase Inhibitors Based on Selenoureas Bearing an Adamantane Moiety” (International Journal of Molecular Sciences, 2022).
# Assays:
# [1] = tested on: human fibroblast cells (MRC-5); test: MTT test with human fibroblast cells; format: cell-based; conditions: MRC5, 72 h, read-out: EC50 ± SEM, MRC-5
# Method: The studied compounds were added in concentrations of 1, 3, 6, 12, 25, 50, and 100 μM.
# Human fibroblast cells (MRC-5) were used in this study. The cells were cultured in the DMEM medium that contained 10% embryonic calf serum in a CO2 incubator at 37 °C. The tested compounds were dissolved in DMSO and added to the cellular culture at the required concentrations. Three wells were used for each concentration. The cells that were incubated without the compounds were used as a negative control, and doxorubicin was used as the positive one. Cells were placed on 96-well microliter plates and cultivated at 37 °C in 5% CO2/95% air for 72 h. The cell viability was assessed through an MTT (3-(4,5-dimethylthiazol-2-yl)-2,5-phenyl-2H-tetrazolium bromide) conversion assay. A total of 1% MTT was added to each well. Three hours later, isopropanol was added and mixed for 15 min. Optical density (OD) of the samples was measured on a ThermoFischer multi-well spectrophotometer at a wavelength of 450 nm. […] The experimental results are given as average values obtained from three independently conducted experiments.
# [2] = tested on: E. coli MG1655 pXen7; test: Constitutive lux-biosensor, general toxicity; format: cell-based, Escherichia coli; conditions: compound at 1 mM; decrease ascribed to shielding of bioluminescence
# Method: Importantly, all the studied compounds are poorly soluble in water and can form a suspension at 1 mM; moreover, compound 4a at concentrations above 100 μM presents a substance of dark color and is capable of the partial shielding of bioluminescence.
# pColD-lux―PcolD is induced by the SOS response; pDps―Pdps is activated in the presence of DNA-oxidizing agents; pSoxS-lux―PSoxS is induced in the presence of superoxide anion radicals; pOxyR-lux―PoxyR is induced in response to the appearance of hydrogen peroxide or organic peroxides; pAlkA-lux―PalkA is induced in response to DNA alkylation. pXen7 contains P. luminescens ZM1 lux genes controlled by its own promoter, which was used as a constitutive.
# The bioluminescence of cells was measured using a Synergy HT luminometer (Biotek, Winooski, VT, USA) at room temperature. Lux biosensors based on E. coli were grown to an early logarithmic phase (OD ≈ 0.1) to achieve a background luminescence approximately 100–1000 RLU at the beginning of the measurements. Lux biosensors based on B. subtilis were grown to a logarithmic phase with an optical density OD ≈ 0.6 (and background luminescence of about 10–500 RLU). Biosensor cell cultures were divided into portions of 200 μL in a 96-well plate. […] The kinetics of change in luminescence was measured at room temperature.
# [3] = tested on: E. coli PQ37; test: SOS chromotest; format: cell-based
# Method: For the final safety check of selenoureas, the SOS chromotest was carried out. […] The results are presented as the mean value of induction factor I (c) ± SEM based on the results of three independent experiments, each of which included three replicates (Table 5).
# The SOS chromotest was carried out according to the standard procedure, with recommended additions. The E. coli PQ37 strain was provided by P. Quillardet (Paris, France). The test compounds were dissolved in dimethyl sulfoxide (DMSO) (also used as a negative control) and added to the bacterial medium in the required concentrations; the concentration of the injected solutions was 1% by volume.
# [4] = LDH release cytotoxicity on peritoneal macrophages; format: cell-based, mice; conditions: male, C57bl/6j, mouse; 24 h incubation; read-out: LDH CC50 ± SE
# Method: (§1) Peritoneal macrophages (PM) were isolated from the peritoneal exudate of 30 male C57bl/6j mice. To accumulate PM, 1 mL of 3% peptone solution was injected intraperitoneally. After 3 days, the mice were euthanized by cervical dislocation. Cells of peritoneal exudate were obtained by aseptic washing of the abdominal cavity with 5 mL of sterile Hanks’s solution (+4–6 °C) without calcium and magnesium ions. The total number and viability of cells were assessed in a Goryaev counting chamber (Russia) with a 0.4% trypan blue staining (Sigma-Aldrich, St. Louis, MO, USA). The cell concentration was adjusted to 1.0 × 10^6 cells/mL in DMEM (Gibco) supplemented with 2 mM L-glutamine (Gibco), 10% heat-inactivated fetal bovine serum (BioClot, Passau, Germany), 100 U/mL penicillin and […] streptomycin (Gibco) and plated 200 μL/well in 96-well transparent plates (SPL Life Sciences Co., Ltd., Pochon, Korea). After 2 h at 37 °C in a humidified atmosphere with 5% CO2, wells were washed to remove nonadherent cells. After 24 h of incubation, 20 μL of the supernatants were substituted with 20 μL of solutions of the test compounds, followed with E. coli O127:B8 LPS (100 ng/mL final concentration) after 30 min. Experiments were run in 3 independent replicates.
# The activity of lactate dehydrogenase (LDH) in a cell culture medium served as a marker of membrane permeability and cell death. Aliquots of supernatants were taken after 24 h of inoculation with test compounds, mixed with 250 μL of […] NADH solution in 54 mM phosphate-buffered saline (pH 7.5). Then, 25 μL of a 6.48 mM pyruvate solution was added to the mixture. The optical density was followed at a wavelength of 340 nm for 20 min. The MTT test was performed 24 h after the incubation of cells with the tested compounds. […] The plates were shaken at room temperature for 10 min, and the optical density was measured in a microplate reader Infinite M200 PRO (Tecan Group Ltd., Männedorf, Switzerland) at a wavelength of 565 nm.
# [5] = MTT cytotoxicity on peritoneal macrophages; format: cell-based, mice; conditions: male, C57bl/6j, mouse; 24 h incubation; read-out: MTT CC50 ± SE
# Method: as §1
# (§2) The activity of lactate dehydrogenase (LDH) in a cell culture medium served as a marker of membrane permeability and cell death. Aliquots of supernatants were taken after 24 h of inoculation with test compounds, mixed with 250 μL of […] NADH solution in 54 mM phosphate-buffered saline (pH 7.5). Then, 25 μL of a 6.48 mM pyruvate solution was added to the mixture. The optical density was followed at a wavelength of 340 nm for 20 min. The MTT test was performed 24 h after the incubation of cells with the tested compounds. Briefly, 20 μL of MTT solution was added to each well and incubated at 37 °C in a humidified atmosphere containing 5% CO2 for 4 h. The culture medium was aspirated, the cells were lysed and formazan crystals dissolved in 150 μL of DMSO. The plates were shaken at room temperature for 10 min, and the optical density was measured in a microplate reader Infinite M200 PRO (Tecan Group Ltd., Männedorf, Switzerland) at a wavelength of 565 nm.
# [6] = tested on: C57bl/6j peritoneal macrophages; test: MTT cytotoxicity on peritoneal macrophages; format: cell-based, mice; conditions: Mus musculus, Peritoneal macrophage, read-out: EC50 ± SEM, C57bl/6j
# Method: as §1, §2
structure (smiles),measurement,setting,value
"[Se]=C(Nc1ccccc1)NC12CC3CC(CC(C3)C1)C2 [4a, 1-(Adamantan-1-yl)-3-phenylselenourea]",EC50,[1],3.38 ± 0.49 µM
same,luminescence decrease coefficient of the pXen7 biosensor,[2],0.29 ± 0.08
same,genotoxic activity (in words),[3]; SOS chromotest / lux-biosensors,does not exhibit genotoxic properties
same,"I(c) ± SE, 10 µM","[3]; induction factor, compound 10 µM",1.03 ± 0.13
same,"I(c) ± SE, 25 µM","[3]; induction factor, compound 25 µM",1.09 ± 0.14
same,"I(c) ± SE, 50 µM","[3]; induction factor, compound 50 µM",1 ± 0.15
same,"I(c) ± SE, 100 µM","[3]; induction factor, compound 100 µM",1.08 ± 0.09
same,CC50 at 24 h,[4],29.4 ± 8.5 µM
same,CC50 at 24 h,[5],7.5 ± 1.9 µM
same,EC50,[6],7.5 ± 1.9 µM
